Measurements taken from PMC4421842 (Nature Communications, 2015).

How the values were obtained:
[1] = system: E. faecalis; test: microbe, parasite or virus in culture; assay type: cell-based; settings: E. faecalis, gyrA Ser83Ile
[2] = system: E. faecium; test: microbe, parasite or virus in culture; assay type: cell-based; settings: E. faecium, gyrA Ser83Ile, parC Ser80Ile

Measured: MIC

Cc1cc(=O)n(C)c2c3c4c(cc12)c(C)cc(=O)n4CO3 [DNM, deoxynybomycin]
0.25 µg/mL: [1]; C21667, parC Ser80Ile | [1]; C28535, parC Ser80Ile | [1]; S234, parC Ser80Ile Glu84Asp | [2]; C27569 | [2]; D1 | [2]; S51 | [2]; S122 | [2]; SL152

CCn1c(=O)cc(C)c2cc3c(C)cc(=O)n4c3c(c21)OC4 [DNM-2]
0.25 µg/mL: [1]; C28535, parC Ser80Ile | [1]; S234, parC Ser80Ile Glu84Asp
